Data reported in PubChem BioAssay (NCI).
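Exposure lasted 48 hours, with cells grown in 96-well plates and compounds tested at five concentrations. GI50 = concentration required for 50% inhibition of growth. TGI: total growth inhibition.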

What was measured:
Assay in all cases: inhibition of tumour cell growth, NCI panel, 48 h
HL-60(TB) leukemia = system: HL-60(TB) leukemia
NCI-H226 lung = system: NCI-H226 lung
NCI-H522 lung = system: NCI-H522 lung
OVCAR-3 ovarian = system: OVCAR-3 ovarian
SF-539 CNS = system: SF-539 CNS
SK-MEL-28 melanoma = system: SK-MEL-28 melanoma
SK-MEL-5 melanoma = system: SK-MEL-5 melanoma
SK-OV-3 ovarian = system: SK-OV-3 ovarian
SNB-75 CNS = system: SNB-75 CNS
SW-620 colon = system: SW-620 colon

Structure (SMILES)	GI50 (HL-60(TB) leukemia) [µM]	TGI (HL-60(TB) leukemia) [µM]	GI50 (NCI-H226 lung) [µM]	TGI (NCI-H226 lung) [µM]	GI50 (NCI-H522 lung) [nM]	TGI (NCI-H522 lung) [µM]	GI50 (OVCAR-3 ovarian) [µM]	TGI (OVCAR-3 ovarian) [µM]	GI50 (SF-539 CNS) [µM]	TGI (SF-539 CNS) [µM]	GI50 (SK-MEL-28 melanoma) [µM]	TGI (SK-MEL-28 melanoma) [µM]	GI50 (SK-MEL-5 melanoma) [µM]	TGI (SK-MEL-5 melanoma) [µM]	GI50 (SK-OV-3 ovarian) [µM]	TGI (SK-OV-3 ovarian) [µM]	GI50 (SNB-75 CNS) [µM]	TGI (SNB-75 CNS) [µM]	GI50 (SW-620 colon) [µM]	TGI (SW-620 colon) [µM]
COc1cc(/C=C/c2cc(C(F)(F)F)[nH]c(=O)n2)ccc1OCc1ccccc1F	9.25	68.2	11.9	43.2	5620	20.4	4.72	17.4	3.68	13.8	9.27	24.7	6.97	20.2	16.3	50.8	21	56.7	7.97	28.3
COP1(=O)CC2C(Cl)(Cl)C2(C)C1 (stereo not given)		> 100		> 100		> 100		> 100		> 100		> 100		> 100		> 100		> 100		> 100
CN(C)c1ccc(/C=C2\Oc3cc(O)ccc3C2=O)cc1		> 100		> 100		> 100		> 100		> 100		> 100		> 100		> 100		> 100		> 100
C=CC(=O)N1CCCC(n2nc(-c3ccc(Oc4ccccc4)cc3)c3c(N)ncnc32)C1 (stereo not given)	21.9	44.5	3.97	19.3	57.8	9.31	6.23	20.4	6.73	21	12.3	25	6.55	19.3	0.0216	15.8	3.55	14.2	16.1	33.4
CCCCCCC/C=C/[C@H]1O[C@]23C(=O)C[C@@]4(C[C@@H](OC5OC(CO)C(O)C(O)C5O)C[C@@H]4[C@H]2C=C1C)OC3=O (stereo not given in full)	1.2	7.53	5.85	13.4	1700	8.64	2.28	6.71	5.1	9.99	5.05	10.3	4.88	9.37	7.13	21.6	2.84	7.17	3.56	11.7
O=C(C(O)c1cn(Cc2ccccc2)c2ccccc12)N1CCCCC1 (stereo not given)		> 100		> 100		> 100		> 100		> 100		> 10		> 100		> 100		> 100		> 100
O=C(O)C1CCc2ccc3ccccc3c2C1c1cccc2ccccc12 (stereo not given)		62		60		60		29.8		49.8		39.5		30.1		> 100		90.1		> 100
Cc1cc(/C=C2\SC(=Nc3ccccc3)N(C3CCCC3)C2=O)c(C)n1-c1ccc(Cl)cc1	> 100	> 100	> 100	> 100	> 100000	> 100	> 100	> 100	> 100	> 100	> 100	> 100	> 100	> 100	> 100	> 100	> 100	> 100	> 100	> 100
NC(=O)c1c[se]c(C2OC(CO)C(O)C2O)n1 (stereo not given)		> 100		> 100		> 100		> 59		> 71.8		> 100		> 100		> 100		> 100		> 100
COC(=O)c1c(-c2ccccc2)cc2c3cc(-c4ccccc4)c(C(=O)OC)n3c3ccccc3n12		> 100		> 100		> 100		> 100		> 100		> 100		> 100		> 100		91.6		> 100
